In US20100092389A1 (The General Hospital Corporation, priority 2008, published 2010):

Tests used:
[1] = cited from earlier work
[2] = in vivo; cited from earlier work
[3] = tested on: atherosclerotic plaques in the iliac and aorta; experiment: Ex vivo fluorescence reflectance imaging (FRI) of resected atherosclerotic aortoiliac vessels; set-up: species or system rabbit; conditions: excitation/emission 762 nm/800 nm
Procedure: Resected atherosclerotic aortoiliac vessels underwent fluorescence reflectance imaging (FRI) with an excitation/emission filter 762 nm/800 nm and a 5 second exposure time. Light images were also obtained with an exposure time of 100 msec. Region-of-interest (ROI) analysis was performed using visual identification of plaques and normal background on FRI images. The plaque target-to-background ratio was defined as: TBR=(plaque ROI signal)/(adjacent vessel background ROI signal).

[4] = tested on: iliac atherosclerotic plaques; experiment: Catheter-based NIRF sensing of ICG enhancement of atherosclerotic plaques; format: in vivo, rabbit; conditions: immediately after injection; 6 mg ICG in 1.2 mL
Procedure: White rabbits (weight 3-3.5 kg) underwent balloon-denudation of iliac arteries and hypercholsterolemic diet in order to develop inflamed atheromata. The rabbits were placed on a high-cholesterol diet (1% cholesterol and 5% peanut oil) for 1 week prior to balloon injury. After an overnight fast, anesthesia was induced with IM ketamine (35 mg/kg) and xylazine (5 mg/kg). Anesthesia was continued using inhaled isoflurane (1-5% v/v) and supplemental 02. Next a 3F Fogarty arterial embolectomy catheter was advanced into the common iliac vessels of the rabbits. The balloon was inflated to tension (0.6-1.0 ml). A total of 3 pullbacks were performed in the left and right iliac artery, as well as the infrarenal aorta. Following injury, the introducer was removed and the left carotid artery was ligated. Rabbits continued on the high-cholesterol diet for 4-8 weeks. […]
Anesthesia was initiated as above, and a 5F introducer was placed into the right carotid artery and then delivered to the descending thoracic aorta under fluoroscopic guidance. […] The maximum voltage was recorded from each digitized pullback. The in vivo plaque target-to-background ratio (TBR) was thus calculated as TBR=(maximum voltage detected from all pullbacks)/(background voltage). […]

[5] = cited from earlier work; remark: listed apart in the source
plaque neovessels = experiment: Correlative fluorescence microscopy of atheromata sections; set-up: species or system rabbit; conditions: x200, FIG. 4(f)
Procedure: After imaging, vessels were immersed in 4% paraformaldehyde for 24 hours. Vascular rings were then frozen in an optical cutting temperature compound for histopathological analysis. Serial 5 micrometer cryosections of rabbit atheromata were cut. […] Tissue sections were viewed using a microscope and images were captured using a digital camera.

CC1(C)C(/C=C/C=C/C=C/C=C2\N(CCCCS(=O)(=O)O)c3ccc4ccccc4c3C2(C)C)=[N+](CCCCS(=O)(=O)[O-])c2ccc3ccccc3c21 [ICG, Indocyanine green]
time usable as intravascular angiographic agent ([1]; bound to proteins): about 40 minutes | route of excretion ([1]; in vivo): rapidly excreted unmetabolized into the bile | time to elimination from the bloodstream ([1]; in vivo): about 2 hours | severe side effect incidence [2]: less than 0.1% | ex vivo plaque signal-to-background [3]: very high plaque signal-to-background | NIRF signal, voltage recordings from the intravascular space of the iliac arteries [4]: > 10 V | solubility in saline [5]: not readily soluble in saline | ICG signal in plaque neovessel by fluorescence microscopy (plaque neovessels): strong ICG signal in a plaque neovessel
